How the values were obtained:
Experiment in all cases: radiometric filter-binding kinase assay, Kinase HotSpot
Conditions in all cases: compound 0.5 µM; ATP 10 µM
[1] = target: PRKCD (human) (UniProt Q05655)
[2] = target: OXSR1 (human) (UniProt O95747)
[3] = target: ROCK2 (human) (UniProt O75116)
[4] = target: PKN1 (human) (UniProt Q16512)
[5] = target: STK17A (human) (UniProt Q9UEE5)
[6] = target: CAMKK1 (human) (UniProt Q8N5S9)
[7] = target: DYRK3 (human) (UniProt O43781)
[8] = target: FGFR4 (human) (UniProt P22455)
[9] = target: GSK3A (human) (UniProt P49840)
[10] = target: YES1 (human) (UniProt P07947)
[11] = target: PRKD1 (human) (UniProt Q15139)
[12] = target: RPS6KB2 (human) (UniProt Q9UBS0)
[13] = target: MAPKAPK3 (human) (UniProt Q16644)
[14] = target: CSNK1D (human) (UniProt P48730)
[15] = target: ULK2 (human) (UniProt Q8IYT8)
Sequence of ULK2 (human) (Q8IYT8 whole entry, looked up): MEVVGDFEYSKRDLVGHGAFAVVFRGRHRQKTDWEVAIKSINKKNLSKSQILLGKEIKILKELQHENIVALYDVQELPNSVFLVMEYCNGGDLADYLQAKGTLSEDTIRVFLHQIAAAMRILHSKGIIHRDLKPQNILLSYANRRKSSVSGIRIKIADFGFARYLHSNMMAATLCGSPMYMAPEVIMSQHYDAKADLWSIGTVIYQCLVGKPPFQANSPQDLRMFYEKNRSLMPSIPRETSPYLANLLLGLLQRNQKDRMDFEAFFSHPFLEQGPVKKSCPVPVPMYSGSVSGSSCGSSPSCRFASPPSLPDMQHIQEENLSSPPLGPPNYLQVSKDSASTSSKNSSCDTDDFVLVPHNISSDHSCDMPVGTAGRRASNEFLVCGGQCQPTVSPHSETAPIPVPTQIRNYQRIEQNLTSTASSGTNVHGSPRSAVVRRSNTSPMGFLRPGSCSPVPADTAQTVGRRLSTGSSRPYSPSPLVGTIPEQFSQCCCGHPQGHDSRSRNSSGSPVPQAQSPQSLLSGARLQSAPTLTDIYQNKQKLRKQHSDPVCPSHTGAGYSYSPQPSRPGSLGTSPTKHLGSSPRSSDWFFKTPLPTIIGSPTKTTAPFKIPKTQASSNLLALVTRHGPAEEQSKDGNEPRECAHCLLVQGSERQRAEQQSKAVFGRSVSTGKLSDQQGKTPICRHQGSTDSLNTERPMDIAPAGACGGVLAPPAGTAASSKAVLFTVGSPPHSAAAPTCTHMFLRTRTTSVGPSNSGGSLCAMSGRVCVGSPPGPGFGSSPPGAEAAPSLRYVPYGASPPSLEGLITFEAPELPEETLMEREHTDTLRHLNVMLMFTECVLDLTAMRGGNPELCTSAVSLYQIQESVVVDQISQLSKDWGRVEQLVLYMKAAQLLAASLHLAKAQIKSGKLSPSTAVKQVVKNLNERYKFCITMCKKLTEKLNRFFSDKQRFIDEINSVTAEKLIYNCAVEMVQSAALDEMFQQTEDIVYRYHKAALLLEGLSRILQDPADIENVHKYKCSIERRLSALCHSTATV

[16] = target: CAMK4 (human) (UniProt Q16566)
Sequence of CAMK4 (human) (Q16566 whole entry, looked up): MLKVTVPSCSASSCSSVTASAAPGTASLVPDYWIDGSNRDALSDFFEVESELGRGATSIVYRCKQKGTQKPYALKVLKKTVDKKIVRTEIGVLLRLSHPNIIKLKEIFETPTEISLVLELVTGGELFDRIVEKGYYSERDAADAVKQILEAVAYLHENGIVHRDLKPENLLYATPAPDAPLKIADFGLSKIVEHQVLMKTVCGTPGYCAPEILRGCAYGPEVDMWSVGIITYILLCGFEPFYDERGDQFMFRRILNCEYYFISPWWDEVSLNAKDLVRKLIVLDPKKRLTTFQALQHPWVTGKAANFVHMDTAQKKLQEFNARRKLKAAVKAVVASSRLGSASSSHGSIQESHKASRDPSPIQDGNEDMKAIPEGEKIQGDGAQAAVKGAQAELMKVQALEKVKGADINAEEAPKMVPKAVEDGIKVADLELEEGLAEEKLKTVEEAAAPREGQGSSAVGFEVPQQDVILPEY

[17] = target: PHKG1 (human) (UniProt Q16816)
[18] = target: CSNK2A2 (human) (UniProt P19784)
[19] = target: CSNK1G3 (human) (UniProt Q9Y6M4)
Sequence of CSNK1G3 (human) (Q9Y6M4 whole entry, looked up): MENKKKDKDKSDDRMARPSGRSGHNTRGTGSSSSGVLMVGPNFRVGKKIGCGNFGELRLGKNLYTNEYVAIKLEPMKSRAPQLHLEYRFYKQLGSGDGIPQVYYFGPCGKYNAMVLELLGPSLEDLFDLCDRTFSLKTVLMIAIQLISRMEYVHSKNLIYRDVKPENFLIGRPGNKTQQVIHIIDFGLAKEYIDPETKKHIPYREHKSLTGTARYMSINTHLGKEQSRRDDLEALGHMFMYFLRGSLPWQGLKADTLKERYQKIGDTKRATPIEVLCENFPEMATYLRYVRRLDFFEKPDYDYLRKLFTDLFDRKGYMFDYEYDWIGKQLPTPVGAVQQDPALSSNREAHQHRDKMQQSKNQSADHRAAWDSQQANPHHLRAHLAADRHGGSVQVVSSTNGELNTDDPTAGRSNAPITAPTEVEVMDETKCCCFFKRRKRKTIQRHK

[20] = target: TXK (human) (UniProt P42681)
[21] = target: NEK9 (human) (UniProt Q8TD19)
[22] = target: MAP2K2 (human) (UniProt P36507)
[23] = target: PTK2 (human) (UniProt Q05397)
[24] = target: MST1R (human) (UniProt Q04912)
[25] = target: MAPK3 (human) (UniProt P27361)
Sequence of MAPK3 (human) (P27361 whole entry, looked up): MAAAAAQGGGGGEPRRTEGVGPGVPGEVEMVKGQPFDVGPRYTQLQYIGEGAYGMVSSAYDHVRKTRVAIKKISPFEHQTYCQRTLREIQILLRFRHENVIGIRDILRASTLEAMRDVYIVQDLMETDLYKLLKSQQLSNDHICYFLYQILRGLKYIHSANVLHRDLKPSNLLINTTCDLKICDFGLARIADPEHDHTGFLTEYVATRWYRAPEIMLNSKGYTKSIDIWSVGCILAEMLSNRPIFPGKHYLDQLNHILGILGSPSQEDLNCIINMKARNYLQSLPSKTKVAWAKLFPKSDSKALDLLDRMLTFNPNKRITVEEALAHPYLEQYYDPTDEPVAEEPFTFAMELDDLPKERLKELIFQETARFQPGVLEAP

[26] = target: STK25 (human) (UniProt O00506)
Sequence of STK25 (human) (O00506 whole entry, looked up): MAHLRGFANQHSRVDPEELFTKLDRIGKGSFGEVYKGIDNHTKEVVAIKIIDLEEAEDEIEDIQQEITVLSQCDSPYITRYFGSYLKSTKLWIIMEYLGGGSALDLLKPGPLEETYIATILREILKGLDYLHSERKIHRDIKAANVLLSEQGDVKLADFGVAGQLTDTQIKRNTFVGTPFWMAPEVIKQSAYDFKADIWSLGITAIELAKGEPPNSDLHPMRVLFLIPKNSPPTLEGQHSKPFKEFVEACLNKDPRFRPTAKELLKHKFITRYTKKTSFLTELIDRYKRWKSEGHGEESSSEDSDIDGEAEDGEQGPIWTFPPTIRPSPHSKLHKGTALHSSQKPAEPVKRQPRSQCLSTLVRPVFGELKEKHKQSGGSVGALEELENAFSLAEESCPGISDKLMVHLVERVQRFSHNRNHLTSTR

[27] = target: STK10 (human) (UniProt O94804)
[28] = target: HIPK4 (human) (UniProt Q8NE63)
[29] = target: CAMK1D (human) (UniProt Q8IU85)
[30] = target: NEK11 (human) (UniProt Q8NG66)
[31] = target: MAP3K10 (human) (UniProt Q02779)
[32] = target: SRPK2 (human) (UniProt P78362)
[33] = target: EPHA2 (human) (UniProt P29317)
[34] = target: TSSK1B (human) (UniProt Q9BXA7)
[35] = target: CDK4 CCND1 (human) (UniProt P24385+P11802)
[36] = target: CDK5 CDK5R1 p35 (human) (UniProt Q00535+Q15078)
[37] = target: SRMS (human) (UniProt Q9H3Y6)
[38] = target: TYK2 JH1 catalytic (human) (UniProt P29597)
[39] = target: PRKCA (human) (UniProt P17252)
[40] = target: MAPK1 (human) (UniProt P28482)
Sequence of MAPK1 (human) (P28482 whole entry, looked up): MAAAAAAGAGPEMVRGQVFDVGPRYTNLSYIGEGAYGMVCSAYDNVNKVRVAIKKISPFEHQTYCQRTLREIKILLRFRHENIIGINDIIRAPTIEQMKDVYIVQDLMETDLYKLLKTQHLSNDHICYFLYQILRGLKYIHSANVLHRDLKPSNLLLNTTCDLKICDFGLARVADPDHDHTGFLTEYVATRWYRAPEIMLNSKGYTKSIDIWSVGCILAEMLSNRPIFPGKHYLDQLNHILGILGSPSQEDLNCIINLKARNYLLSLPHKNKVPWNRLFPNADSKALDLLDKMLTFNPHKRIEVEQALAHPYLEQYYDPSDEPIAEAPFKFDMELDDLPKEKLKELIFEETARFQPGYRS

[41] = target: NLK (human) (UniProt Q9UBE8)
[42] = target: PDGFRB (human) (UniProt P09619)

Sequence of OXSR1 (human) (O95747 whole entry, looked up): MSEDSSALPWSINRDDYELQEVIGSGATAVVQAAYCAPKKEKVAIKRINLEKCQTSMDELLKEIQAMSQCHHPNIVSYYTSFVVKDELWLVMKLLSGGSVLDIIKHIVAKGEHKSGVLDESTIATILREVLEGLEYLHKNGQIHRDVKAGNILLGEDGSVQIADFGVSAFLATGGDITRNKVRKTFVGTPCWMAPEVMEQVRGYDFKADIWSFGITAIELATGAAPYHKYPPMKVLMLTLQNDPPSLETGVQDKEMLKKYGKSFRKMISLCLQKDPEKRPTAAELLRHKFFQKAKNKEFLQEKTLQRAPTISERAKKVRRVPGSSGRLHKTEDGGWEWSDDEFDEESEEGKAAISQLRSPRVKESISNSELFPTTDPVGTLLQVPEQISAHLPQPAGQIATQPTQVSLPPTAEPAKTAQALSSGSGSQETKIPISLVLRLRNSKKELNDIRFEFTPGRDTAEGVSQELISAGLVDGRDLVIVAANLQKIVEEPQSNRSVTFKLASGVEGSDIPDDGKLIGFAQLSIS
Sequence of ROCK2 (human) (O75116 whole entry, looked up): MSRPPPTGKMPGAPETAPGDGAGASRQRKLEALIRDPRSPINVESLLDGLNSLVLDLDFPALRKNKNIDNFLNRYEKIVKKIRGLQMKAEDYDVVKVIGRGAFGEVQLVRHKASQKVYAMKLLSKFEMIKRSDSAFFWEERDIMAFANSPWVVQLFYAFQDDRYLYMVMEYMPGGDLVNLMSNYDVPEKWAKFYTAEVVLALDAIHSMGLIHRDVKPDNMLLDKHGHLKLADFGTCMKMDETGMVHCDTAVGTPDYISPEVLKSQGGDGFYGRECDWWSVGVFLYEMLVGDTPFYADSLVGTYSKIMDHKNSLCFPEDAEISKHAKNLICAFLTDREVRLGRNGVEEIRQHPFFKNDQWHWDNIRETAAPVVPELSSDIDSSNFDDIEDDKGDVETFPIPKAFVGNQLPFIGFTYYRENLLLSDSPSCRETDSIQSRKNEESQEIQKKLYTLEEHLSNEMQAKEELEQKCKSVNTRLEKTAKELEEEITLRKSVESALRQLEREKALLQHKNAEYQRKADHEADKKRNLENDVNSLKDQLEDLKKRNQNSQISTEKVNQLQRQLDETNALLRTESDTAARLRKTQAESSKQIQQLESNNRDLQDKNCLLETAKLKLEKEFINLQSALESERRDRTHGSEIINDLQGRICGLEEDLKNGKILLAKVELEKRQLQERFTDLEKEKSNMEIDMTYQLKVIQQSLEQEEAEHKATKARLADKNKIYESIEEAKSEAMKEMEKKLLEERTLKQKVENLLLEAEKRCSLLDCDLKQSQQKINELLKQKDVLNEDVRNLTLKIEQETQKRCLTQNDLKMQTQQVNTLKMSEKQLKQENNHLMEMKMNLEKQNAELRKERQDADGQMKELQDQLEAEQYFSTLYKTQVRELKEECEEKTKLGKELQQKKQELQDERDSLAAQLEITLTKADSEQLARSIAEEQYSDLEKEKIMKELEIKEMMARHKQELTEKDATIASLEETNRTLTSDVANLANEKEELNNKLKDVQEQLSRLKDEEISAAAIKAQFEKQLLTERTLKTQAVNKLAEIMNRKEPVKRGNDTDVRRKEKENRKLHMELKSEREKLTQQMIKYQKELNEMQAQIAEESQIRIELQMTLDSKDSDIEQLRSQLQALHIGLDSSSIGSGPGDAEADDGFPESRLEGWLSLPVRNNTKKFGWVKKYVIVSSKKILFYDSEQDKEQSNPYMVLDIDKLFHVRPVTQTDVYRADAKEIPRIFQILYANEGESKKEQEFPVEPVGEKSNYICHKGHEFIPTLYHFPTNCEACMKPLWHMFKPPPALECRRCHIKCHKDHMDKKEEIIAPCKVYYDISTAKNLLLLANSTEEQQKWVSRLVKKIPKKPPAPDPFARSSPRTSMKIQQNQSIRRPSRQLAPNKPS

## O=c1c2ccccc2[nH]c(=S)n1CCN1CCC(=C(c2ccc(F)cc2)c2ccc(F)cc2)CC1
[1]
  residual activity: 95.7%
[2]
  residual activity: 115%
[3]
  residual activity: 98.8%
[4]
  residual activity: 103%
[5]
  residual activity: 103%
[6]
  residual activity: 110%
[7]
  residual activity: 101%
[8]
  residual activity: 105%
[9]
  residual activity: 104%
[10]
  residual activity: 99.2%
[11]
  residual activity: 101%
[12]
  residual activity: 102%
[13]
  residual activity: 109%
[14]
  residual activity: 100%
[15]
  residual activity: 96.5%
[16]
  residual activity: 94.7%
[17]
  residual activity: 101%
[18]
  residual activity: 97.7%
[19]
  residual activity: 97.1%
[20]
  residual activity: 100%
[21]
  residual activity: 97%
[22]
  residual activity: 101%
[23]
  residual activity: 105%
[24]
  residual activity: 103%
[25]
  residual activity: 105%
[26]
  residual activity: 96.6%
[27]
  residual activity: 96.2%
[28]
  residual activity: 98.4%
[29]
  residual activity: 96.8%
[30]
  residual activity: 94%
[31]
  residual activity: 99.6%
[32]
  residual activity: 94.1%
[33]
  residual activity: 105%
[34]
  residual activity: 106%
[35]
  residual activity: 99.6%
[36]
  residual activity: 101%
[37]
  residual activity: 96.7%
[38]
  residual activity: 107%
[39]
  residual activity: 73.1%
[40]
  residual activity: 102%
[41]
  residual activity: 99.5%
[42]
  residual activity: 112%

## O=c1cc(N2CCOCC2)oc2c(-c3ccccc3)cccc12
[1]
  residual activity: 96%
[2]
  residual activity: 118%
[3]
  residual activity: 95.2%
[4]
  residual activity: 109%
[5]
  residual activity: 93.5%
[6]
  residual activity: 105%
[7]
  residual activity: 100%
[8]
  residual activity: 104%
[9]
  residual activity: 93.5%
[10]
  residual activity: 101%
[11]
  residual activity: 98.3%
[12]
  residual activity: 94.9%
[13]
  residual activity: 101%
[14]
  residual activity: 100%
[15]
  residual activity: 113%
[16]
  residual activity: 104%
[17]
  residual activity: 90.1%
[18]
  residual activity: 93.9%
[19]
  residual activity: 92.4%
[20]
  residual activity: 93.6%
[21]
  residual activity: 101%
[22]
  residual activity: 96.8%
[23]
  residual activity: 103%
[24]
  residual activity: 109%
[25]
  residual activity: 104%
[26]
  residual activity: 116%
[27]
  residual activity: 97.1%
[28]
  residual activity: 102%
[29]
  residual activity: 47.9%
[30]
  residual activity: 102%
[31]
  residual activity: 90.1%
[32]
  residual activity: 98.2%
[33]
  residual activity: 104%
[34]
  residual activity: 101%
[35]
  residual activity: 111%
[36]
  residual activity: 107%
[37]
  residual activity: 103%
[38]
  residual activity: 103%
[39]
  residual activity: 97.5%
[40]
  residual activity: 70.3%
[41]
  residual activity: 99.8%
[42]
  residual activity: 102%

## c1ccc(-c2cnc(Nc3ccc(OCCN4CCCC4)cc3)s2)cc1
[1]
  residual activity: 91.3%
[2]
  residual activity: 85.3%
[3]
  residual activity: 91.7%
[4]
  residual activity: 94.8%
[5]
  residual activity: 66.2%
[6]
  residual activity: 56.6%
[7]
  residual activity: 106%
[8]
  residual activity: 95.6%
[9]
  residual activity: 99.2%
[10]
  residual activity: 42.1%
[11]
  residual activity: 78.4%
[12]
  residual activity: 92.7%
[13]
  residual activity: 97.6%
[14]
  residual activity: 95.8%
[15]
  residual activity: 78.3%
[16]
  residual activity: 97.2%
[17]
  residual activity: 45.5%
[18]
  residual activity: 92.1%
[19]
  residual activity: 91.8%
[20]
  residual activity: 91.1%
[21]
  residual activity: 101%
[22]
  residual activity: 90.2%
[23]
  residual activity: 98.3%
[24]
  residual activity: 107%
[25]
  residual activity: 99.8%
[26]
  residual activity: 95.5%
[27]
  residual activity: 76.9%
[28]
  residual activity: 98.5%
[29]
  residual activity: 101%
[30]
  residual activity: 95%
[31]
  residual activity: 95.7%
[32]
  residual activity: 103%
[33]
  residual activity: 108%
[34]
  residual activity: 96.5%
[35]
  residual activity: 61.2%
[36]
  residual activity: 82.4%
[37]
  residual activity: 96.5%
[38]
  residual activity: 106%
[39]
  residual activity: 106%
[40]
  residual activity: 83.4%
[41]
  residual activity: 89.7%
[42]
  residual activity: 28.5%
